# Source: EP1063992B1, “SULFURPENTA FLUOROPHENYL PYRAZOLES FOR CONTROLLING ECTOPARASITIC INFESTATIONS” (MERCK & CO., INC., priority 1998, dated 1999)
# Read-outs that look alike come from different tables or passages of the source.
# Experiments:
# [1] = test system: fleas and ticks; settings: topical application; cited from earlier work
# [2] = administered systemically, animals; cited from earlier work
# [3] = test system: fleas; experiment: Activity against fleas in dogs (infestation with about 100 fleas, comb counts about 48 hours later); format: in vivo
# Protocol: (§1) Beagle dogs of both sexes 21 to 31 months old and weighing from 10 to 16 kg were used. Groups of three dogs each were treated with the same active compound in different formulations as follows: • Group 1: topical formulation containing 10% w/v of active compound, 5% w/v polyvinylpyrrolidone 30 and ethanol qs to 100%v/v dosed at 5 mg/kg. • Group 2: long acting parenteral formulation containing 10% w/v of the active compound, 25% w/v of sucrose octaacetate, 1% w/v of propylene glycol octanoate decanoate and triacetin qs 100% v/v dosed subcutaneously at 10 mg/kg. • Group 3: long acting parenteral formulation containing 10% w/v active compound, 10% w/v poly(DL-lactide/glycolide)75/25, and qs 100% v/v 1:1 glycerol formal/triacetin dosed at 10 mg/kg subcutaneously. • Control group of three untreated dogs was included.
# Treatments were administered once on Day 0. On Day 1 animals all animals were infested with approximately 100 fleas. Animals were combed and fleas counted and removed approximately 48 hours after infestation. Animals were infested on days 12 and 26, and combed and fleas counted and removed approximately 48 hours after infestation. Infestation/counting were repeated approximately monthly until efficacy fell below 80% [% efficacy = (1 - (mean flea count of treatment group ö mean flea count of control group) x 100).
# [4] = Observation for emesis (vomition) in treated dogs; format: in vivo, Beagle dogs; settings: 10 mg/kg subcutaneously
# Protocol: as §1
# (§2) Blood samples were collected from animals in treatment groups on Day 0 at 1, 2, 3 and 6 hours after treatment, on Day 1 at 24 hours after treatment, and whenever emesis was observed. Blood samples were also collected when flea counts were determined. Animals were observed hourly for 6 hours post treatment for emesis.
# [5] = Plasma drug level in treated dogs; format: in vivo, Beagle dogs; settings: dog, sc, group 2: sucrose octaacetate/triacetin formulation, 10 mg/kg subcutaneously, read-out: peak plasma levels
# Protocol: as §1, §2
Cmax [5] [ng/mL],SMILES,duration of efficacy [1],vomition [2],"efficacy against fleas ([3]; group 1: topical formulation, 10% w/v active compound, 5 mg/kg once on Day 0, dogs, held for between 55 and 90 days) [%]","efficacy against fleas ([3]; group 2: long acting parenteral formulation (sucrose octaacetate/triacetin), 10 mg/kg subcutaneously once, dogs, maintained for up to between 5 and 6 months) [%]","duration of close to 100% efficacy against fleas ([3]; group 3: long acting parenteral formulation (poly(DL-lactide/glycolide)75/25, 1:1 glycerol formal/triacetin), 10 mg/kg subcutaneously once, dogs) [months]","efficacy against fleas ([3]; group 3: long acting parenteral formulation (poly(DL-lactide/glycolide)75/25, 1:1 glycerol formal/triacetin), 10 mg/kg subcutaneously once, dogs, for >12 months) [%]",vomition ([4]; group 2: sucrose octaacetate/triacetin formulation),vomition ([4]; group 3: poly(DL-lactide/glycolide) formulation)
–,"N#Cc1nn(-c2c(Cl)cc(C(F)(F)F)cc2Cl)c(N)c1[S+]([O-])C(F)(F)F (stereo not drawn) [Fipronil, fipronil]",not more than three months,known to cause vomition,–,–,–,–,–,–
> 100,N#Cc1nn(-c2c(Cl)cc(S(F)(F)(F)(F)F)cc2Cl)c(N)c1SC(F)(F)F [active compound],–,–,> 90,> 90,> 12,~100,Vomition occurred,No vomition was observed
